Results on 2 compounds are retold here after patent publication US4845080A, “Human calcitonin peptide with salmon calcitonin-like characteristics” (Ciba-Geigy Corporation, priority 1983, dated 1989).

The structures appear in SMILES notation.

Series [1] deals with antibody serum to synthetic sCT. The series is described as follows: Radioimmunoassay with antibodies to synthetic sCT, inhibition of [125I]sCT binding. Also noted: species or system goat. The method, then:
The concentration of hCT 2 is determined radioimmunologically in a concentration series. 10, 20, 50 and 100 μl, respectively, of the HPLC fractions, which have been aftertreated as described above, are preincubated for 3 days at 4° C. together with 100 μl of antibody serum to synthetic sCT (Sandoz AG, Basle, Switzerland) in an immunoassay buffer with a total volume of 300 μl (immunoassay buffer: 0.05M phosphate, pH 7.5, 10% of human serum containing no detectable amounts of immunoreactive sCT), and, after the addition of 200 μl of assay buffer having 15,000 dpm of [^125 I]sCT (specific activity 600 Ci/mmol), subsequently incubated for a further 3 days at 4° C. The labelling of sCT with ^125 I is performed with Chloramin-T (Eastman Kodak, Rochester, USA) essentially according to the method of W. M. Hunter and F. C.
The above-mentioned antibody serum is obtained as follows: The antibodies are produced in a 25 kg goat after primary immunisation with 200 μg of sCT (see above) as antigen, and reimmunisation with 100 μg of the same antigen 30 days after the primary immunisation. For immunisation, sCT is dissolved in 0.01M acetic acid (1 mg/ml), the solution is mixed with 2 percent by weight of solid aluminium hydroxide (Alhydrogel, Superfos Export Co. a/s Copenhagen, Denmark) and the mixture is suspended in an equal volume of complete Freund's adjuvant (Difco Laboratories, Detroit, Mich., USA). This suspension is produced in an Omnimixer (Sorvall) at 4° C. at the maximum mixing rate. 0.5-1.0 ml of suspension is drawn up into disposable syringes (Primo 1 ml, Asik I/S, Denmark), and administered on each leg subcutaneously in the region of the subaxillary lymph nodes. Ten days after the abovementioned reimmunisation, 50-80 ml of blood containing the desired antibodies against sCT are withdrawn from the jugular vein into heparinised tubes, and the plasma obtained is stored at -20° C. in 3-5 ml portions.
(§1) The quantity of antibodies obtained is estimated by measurement of the binding of the withdrawn plasma to [^125 I] sCT. Antibody-bound and free [^125 I]sCT are separated by means of charcoal coated with dextran, in the main according to the method of V. Herbert, K.-S. Lau, C. W. Gottlieb and S. J. Bleicher [J. Clin. Endocrinol. Metab. 25, 1375-1384 (1965)]. The same method is used for the detection of antibodies in human serum.

A short description of series [2]: Detection of antibodies able to react with sCT in human serum (binding to [125I]sCT). As to conditions: verified with radioimmunoassay.
Description: (c) in the human serum no initiation of the formation of detectable amounts of antibodies which are able to react with sCT, the binding to [^125 I]sCT having a specific activity of 600 Ci/mmol being used for verfying this evidence;
The substance hCT 2 differs from the known hCT in the aforementioned HPLC system by virtue of a clearly different retention time; on the other hand, hCT 2 has a retention time practically identical to that of sCT. In the aforementioned gel system, the elution volume of hCT 2 differs from that of hCT, but is practically identical to that of sCT. These facts indicate that hCT 2 with respect to the amino acid composition, even though not necessarily with respect to the amino acid sequence, is more closely related to sCT than to hCT. With regard to immunology, however, hCT 2 differs greatly from sCT.
as §1

Regarding `CC[C@H](C)[C@H](NC(=O)[C@H](C)NC(=O)[C@@H](NC(=O)[C@H](CCC(N)=O)NC(=O)[C@@H]1CCCN1C(=O)[C@H](Cc1ccccc1)NC(=O)[C@@H](NC(=O)[C@H](Cc1c[nH]cn1)NC(=O)[C@H](Cc1ccccc1)NC(=O)[C@H](CCCCN)NC(=O)[C@H](CC(N)=O)NC(=O)[C@H](Cc1ccccc1)NC(=O)[C@H](CC(=O)O)NC(=O)[C@H](CCC(N)=O)NC(=O)[C@@H](NC(=O)[C@H](Cc1ccc(O)cc1)NC(=O)[C@@H](NC(=O)CNC(=O)[C@H](CC(C)C)NC(=O)[C@H](CCSC)NC(=O)[C@@H]1CSSC[C@H](N)C(=O)NCC(=O)N[C@@H](CC(N)=O)C(=O)N[C@@H](CC(C)C)C(=O)N[C@@H](CO)C(=O)N[C@@H]([C@@H](C)O)C(=O)N1)[C@@H](C)O)[C@@H](C)O)[C@@H](C)O)[C@@H](C)O)C(=O)NCC(=O)N[C@H](C(=O)NCC(=O)N[C@@H](C)C(=O)N1CCC[C@H]1C(N)=O)C(C)C` [hCT, human calcitonin-(1-32)], the “amount not giving comparable (half maximum) inhibition of the binding of [125I]sCT to the antibodies” value in series [1] (antibody final dilution 1:25,000) is greater than 10 µg.
Turning to `CC(C)C[C@H](NC(=O)[C@H](CCCCN)NC(=O)CNC(=O)[C@H](CC(C)C)NC(=O)[C@@H](NC(=O)[C@@H]1CSSC[C@H](N)C(=O)N[C@@H](CO)C(=O)N[C@@H](CC(N)=O)C(=O)N[C@@H](CC(C)C)C(=O)N[C@@H](CO)C(=O)N[C@@H]([C@@H](C)O)C(=O)N1)C(C)C)C(=O)N[C@@H](CO)C(=O)N[C@@H](CCC(N)=O)C(=O)N[C@@H](CCC(=O)O)C(=O)N[C@@H](CC(C)C)C(=O)N[C@@H](Cc1c[nH]cn1)C(=O)N[C@@H](CCCCN)C(=O)N[C@@H](CC(C)C)C(=O)N[C@@H](CCC(N)=O)C(=O)N[C@H](C(=O)N[C@@H](Cc1ccc(O)cc1)C(=O)N1CCC[C@H]1C(=O)N[C@@H](CCCNC(=N)N)C(=O)N[C@H](C(=O)N[C@@H](CC(N)=O)C(=O)N[C@H](C(=O)NCC(=O)N[C@@H](CO)C(=O)NCC(=O)N[C@H](C(=O)N1CCC[C@H]1C(N)=O)[C@@H](C)O)[C@@H](C)O)[C@@H](C)O)[C@@H](C)O` [sCT, salmon calcitonin-(1-32)], the “formation of antibodies in the human serum” value in series [2] is on record as “produces in the human serum an antibody response”. Also, the “half maximum inhibition of the binding of [125I]sCT to the antibodies” value is given as “about 100 pg” in series [1] (antibody final dilution 1:25,000, 15,000 dpm [125I]sCT, 4° C., amount per tube) and 0.03 pmol in series [1] (same value given in pmol). Also, in series [1] (lower concentration for sCT), the “concentration at which the antibodies react with sCT compared with hCT, which they do not recognise” value is given as ≤ 10^5 fold.
